Results reported in ChEMBL document CHEMBL5291721, “A preclinical secondary pharmacology resource illuminates target-adverse drug reaction associations of marketed drugs” (Nat Commun, 2023).

Experiments:
Motilin receptor = Motilin receptor (Homo sapiens, UniProt O43193)
Melanocortin receptor 3 = Melanocortin receptor 3 (Homo sapiens, UniProt P41968)
[1] = target: Voltage-dependent L-type calcium channel subunit alpha-1C (Rattus norvegicus, UniProt P22002); type: functional
D(1A) dopamine receptor [2] = target: T1, D(1A) dopamine receptor (Homo sapiens, UniProt P21728)
T1 sequence (P21728 whole entry): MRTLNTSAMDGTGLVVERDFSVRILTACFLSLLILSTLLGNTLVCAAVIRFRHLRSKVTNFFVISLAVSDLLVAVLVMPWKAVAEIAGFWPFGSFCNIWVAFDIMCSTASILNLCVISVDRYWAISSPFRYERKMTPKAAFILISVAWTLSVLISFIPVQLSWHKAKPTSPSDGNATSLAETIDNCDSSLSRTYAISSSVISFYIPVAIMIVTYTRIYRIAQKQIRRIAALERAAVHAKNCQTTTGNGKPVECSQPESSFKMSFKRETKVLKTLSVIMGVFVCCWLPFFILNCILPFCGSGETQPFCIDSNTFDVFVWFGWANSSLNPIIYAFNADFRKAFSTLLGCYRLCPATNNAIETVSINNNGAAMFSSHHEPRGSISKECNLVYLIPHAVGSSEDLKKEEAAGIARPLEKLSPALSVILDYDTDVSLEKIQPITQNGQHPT

[3] = target: Sodium-dependent noradrenaline transporter (Homo sapiens, UniProt P23975)
Chain of Sodium-dependent noradrenaline transporter (P23975 whole entry): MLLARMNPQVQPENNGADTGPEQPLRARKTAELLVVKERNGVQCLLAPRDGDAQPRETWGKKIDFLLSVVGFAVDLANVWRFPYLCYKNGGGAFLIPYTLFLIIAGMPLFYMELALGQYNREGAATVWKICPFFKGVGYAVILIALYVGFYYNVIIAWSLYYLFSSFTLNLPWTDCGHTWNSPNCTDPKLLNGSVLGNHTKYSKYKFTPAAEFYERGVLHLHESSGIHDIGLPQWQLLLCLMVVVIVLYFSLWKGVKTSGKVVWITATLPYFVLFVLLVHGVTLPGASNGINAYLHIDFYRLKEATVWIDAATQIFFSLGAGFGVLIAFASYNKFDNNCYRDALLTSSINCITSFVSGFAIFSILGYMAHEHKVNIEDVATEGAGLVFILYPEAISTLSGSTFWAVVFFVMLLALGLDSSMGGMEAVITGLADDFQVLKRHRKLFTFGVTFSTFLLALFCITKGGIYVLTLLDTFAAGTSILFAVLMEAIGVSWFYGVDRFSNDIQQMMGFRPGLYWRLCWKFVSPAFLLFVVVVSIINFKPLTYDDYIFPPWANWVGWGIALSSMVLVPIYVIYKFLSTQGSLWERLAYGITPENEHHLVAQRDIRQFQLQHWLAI

[4] = target: T2, Alpha-2B adrenergic receptor (Homo sapiens, UniProt P18089)
T2 sequence (P18089 whole entry): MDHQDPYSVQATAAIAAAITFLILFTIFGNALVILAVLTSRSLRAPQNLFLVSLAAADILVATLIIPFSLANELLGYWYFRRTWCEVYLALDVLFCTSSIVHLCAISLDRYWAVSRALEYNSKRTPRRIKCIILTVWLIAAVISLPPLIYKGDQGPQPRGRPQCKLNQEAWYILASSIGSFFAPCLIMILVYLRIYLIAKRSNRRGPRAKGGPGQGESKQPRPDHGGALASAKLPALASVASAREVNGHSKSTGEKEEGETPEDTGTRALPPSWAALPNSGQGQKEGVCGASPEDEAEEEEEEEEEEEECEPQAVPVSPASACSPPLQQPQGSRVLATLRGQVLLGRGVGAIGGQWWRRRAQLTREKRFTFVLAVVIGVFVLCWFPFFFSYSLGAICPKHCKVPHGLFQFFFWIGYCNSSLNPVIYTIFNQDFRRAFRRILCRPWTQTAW

[5] = target: T3, Muscarinic acetylcholine receptor M1 (Homo sapiens, UniProt P11229); type: functional, cell-based
T3 sequence (P11229 whole entry): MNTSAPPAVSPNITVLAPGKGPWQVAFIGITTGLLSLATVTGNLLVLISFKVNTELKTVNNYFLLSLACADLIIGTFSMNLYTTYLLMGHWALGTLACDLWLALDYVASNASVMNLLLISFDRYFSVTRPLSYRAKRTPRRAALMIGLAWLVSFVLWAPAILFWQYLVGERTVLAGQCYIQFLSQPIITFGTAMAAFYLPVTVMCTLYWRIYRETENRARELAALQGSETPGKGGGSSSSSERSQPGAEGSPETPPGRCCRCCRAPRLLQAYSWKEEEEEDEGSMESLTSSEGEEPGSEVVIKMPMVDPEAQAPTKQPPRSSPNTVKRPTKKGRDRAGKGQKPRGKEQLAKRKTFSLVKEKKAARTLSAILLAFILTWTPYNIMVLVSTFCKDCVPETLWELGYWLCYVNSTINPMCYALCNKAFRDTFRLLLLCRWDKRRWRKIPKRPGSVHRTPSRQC

[6] = target: T4, Neuropeptide Y receptor type 1 (Homo sapiens, UniProt P25929)
T4 sequence (P25929 whole entry): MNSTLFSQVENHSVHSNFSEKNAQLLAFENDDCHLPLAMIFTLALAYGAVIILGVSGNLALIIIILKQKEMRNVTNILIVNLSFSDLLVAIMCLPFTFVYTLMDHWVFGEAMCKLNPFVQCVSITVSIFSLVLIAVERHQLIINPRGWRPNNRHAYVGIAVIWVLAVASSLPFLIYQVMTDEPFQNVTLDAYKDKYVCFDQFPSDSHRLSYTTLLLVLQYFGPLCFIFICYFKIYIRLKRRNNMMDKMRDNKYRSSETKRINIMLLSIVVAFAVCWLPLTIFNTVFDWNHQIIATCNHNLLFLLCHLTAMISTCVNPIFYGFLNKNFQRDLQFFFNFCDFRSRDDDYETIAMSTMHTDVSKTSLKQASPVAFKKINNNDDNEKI

D(1A) dopamine receptor [7] = target: T1, D(1A) dopamine receptor; type: functional, cell-based
Mu-type opioid receptor = Mu-type opioid receptor (Homo sapiens, UniProt P35372)
Chain of Mu-type opioid receptor (P35372 whole entry): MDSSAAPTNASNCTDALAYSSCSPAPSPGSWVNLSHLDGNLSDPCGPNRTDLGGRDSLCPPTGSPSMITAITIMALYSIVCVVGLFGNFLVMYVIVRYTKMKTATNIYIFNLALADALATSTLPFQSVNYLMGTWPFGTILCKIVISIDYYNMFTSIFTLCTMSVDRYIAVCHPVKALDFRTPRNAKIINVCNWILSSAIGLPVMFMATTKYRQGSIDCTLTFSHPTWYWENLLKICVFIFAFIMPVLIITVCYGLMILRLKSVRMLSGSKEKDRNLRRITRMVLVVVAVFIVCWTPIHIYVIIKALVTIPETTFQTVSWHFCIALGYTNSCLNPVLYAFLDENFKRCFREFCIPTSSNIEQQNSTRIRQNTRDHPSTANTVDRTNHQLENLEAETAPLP

Progesterone receptor = target: T5, Progesterone receptor (Homo sapiens, UniProt P06401)
T5 sequence (P06401 whole entry): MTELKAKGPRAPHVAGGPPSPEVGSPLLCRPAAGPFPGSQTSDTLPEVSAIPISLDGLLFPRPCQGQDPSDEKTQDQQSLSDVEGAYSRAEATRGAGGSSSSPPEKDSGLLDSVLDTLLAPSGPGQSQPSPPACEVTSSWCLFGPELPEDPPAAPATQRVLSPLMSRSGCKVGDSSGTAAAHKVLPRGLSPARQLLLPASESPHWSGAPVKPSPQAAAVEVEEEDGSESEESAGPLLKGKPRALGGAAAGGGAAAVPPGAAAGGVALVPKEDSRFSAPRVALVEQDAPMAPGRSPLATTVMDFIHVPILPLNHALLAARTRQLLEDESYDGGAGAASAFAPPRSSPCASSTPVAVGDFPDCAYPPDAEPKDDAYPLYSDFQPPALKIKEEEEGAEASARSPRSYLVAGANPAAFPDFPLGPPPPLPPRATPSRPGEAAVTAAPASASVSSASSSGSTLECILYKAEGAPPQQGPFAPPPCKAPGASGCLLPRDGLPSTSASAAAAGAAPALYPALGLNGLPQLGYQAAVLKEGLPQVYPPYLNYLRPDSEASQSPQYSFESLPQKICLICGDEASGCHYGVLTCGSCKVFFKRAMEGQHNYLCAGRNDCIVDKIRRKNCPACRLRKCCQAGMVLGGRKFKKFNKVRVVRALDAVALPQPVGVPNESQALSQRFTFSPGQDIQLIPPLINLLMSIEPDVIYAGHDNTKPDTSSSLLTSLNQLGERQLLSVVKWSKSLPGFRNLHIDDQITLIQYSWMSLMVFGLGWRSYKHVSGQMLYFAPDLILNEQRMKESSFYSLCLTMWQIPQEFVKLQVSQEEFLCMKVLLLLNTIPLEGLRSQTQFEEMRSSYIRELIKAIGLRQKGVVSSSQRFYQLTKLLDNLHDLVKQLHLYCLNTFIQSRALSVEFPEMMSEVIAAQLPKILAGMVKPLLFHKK
Note: assay procedure not described here.

Chain of Melanocortin receptor 3 (P41968 whole entry): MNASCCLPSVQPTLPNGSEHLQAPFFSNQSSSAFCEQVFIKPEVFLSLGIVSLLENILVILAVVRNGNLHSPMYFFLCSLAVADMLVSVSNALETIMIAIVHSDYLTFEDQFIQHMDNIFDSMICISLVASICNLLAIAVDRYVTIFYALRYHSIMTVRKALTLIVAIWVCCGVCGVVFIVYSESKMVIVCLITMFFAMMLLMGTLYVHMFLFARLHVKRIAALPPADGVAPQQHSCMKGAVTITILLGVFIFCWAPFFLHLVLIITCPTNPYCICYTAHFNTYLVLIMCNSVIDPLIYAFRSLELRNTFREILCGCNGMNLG
Chain of Motilin receptor (O43193 whole entry): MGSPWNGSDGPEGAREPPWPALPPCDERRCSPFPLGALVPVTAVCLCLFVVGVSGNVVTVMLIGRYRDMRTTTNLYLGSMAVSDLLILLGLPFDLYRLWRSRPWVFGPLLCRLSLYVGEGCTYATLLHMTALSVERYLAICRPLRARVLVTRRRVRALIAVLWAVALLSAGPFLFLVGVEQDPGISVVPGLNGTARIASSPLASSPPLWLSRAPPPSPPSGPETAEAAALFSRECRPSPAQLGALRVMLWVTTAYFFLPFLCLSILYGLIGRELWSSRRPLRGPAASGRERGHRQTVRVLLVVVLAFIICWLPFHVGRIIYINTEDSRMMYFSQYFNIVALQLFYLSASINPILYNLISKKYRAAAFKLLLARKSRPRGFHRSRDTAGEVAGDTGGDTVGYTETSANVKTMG
Chain of Voltage-dependent L-type calcium channel subunit alpha-1C (P22002 whole entry): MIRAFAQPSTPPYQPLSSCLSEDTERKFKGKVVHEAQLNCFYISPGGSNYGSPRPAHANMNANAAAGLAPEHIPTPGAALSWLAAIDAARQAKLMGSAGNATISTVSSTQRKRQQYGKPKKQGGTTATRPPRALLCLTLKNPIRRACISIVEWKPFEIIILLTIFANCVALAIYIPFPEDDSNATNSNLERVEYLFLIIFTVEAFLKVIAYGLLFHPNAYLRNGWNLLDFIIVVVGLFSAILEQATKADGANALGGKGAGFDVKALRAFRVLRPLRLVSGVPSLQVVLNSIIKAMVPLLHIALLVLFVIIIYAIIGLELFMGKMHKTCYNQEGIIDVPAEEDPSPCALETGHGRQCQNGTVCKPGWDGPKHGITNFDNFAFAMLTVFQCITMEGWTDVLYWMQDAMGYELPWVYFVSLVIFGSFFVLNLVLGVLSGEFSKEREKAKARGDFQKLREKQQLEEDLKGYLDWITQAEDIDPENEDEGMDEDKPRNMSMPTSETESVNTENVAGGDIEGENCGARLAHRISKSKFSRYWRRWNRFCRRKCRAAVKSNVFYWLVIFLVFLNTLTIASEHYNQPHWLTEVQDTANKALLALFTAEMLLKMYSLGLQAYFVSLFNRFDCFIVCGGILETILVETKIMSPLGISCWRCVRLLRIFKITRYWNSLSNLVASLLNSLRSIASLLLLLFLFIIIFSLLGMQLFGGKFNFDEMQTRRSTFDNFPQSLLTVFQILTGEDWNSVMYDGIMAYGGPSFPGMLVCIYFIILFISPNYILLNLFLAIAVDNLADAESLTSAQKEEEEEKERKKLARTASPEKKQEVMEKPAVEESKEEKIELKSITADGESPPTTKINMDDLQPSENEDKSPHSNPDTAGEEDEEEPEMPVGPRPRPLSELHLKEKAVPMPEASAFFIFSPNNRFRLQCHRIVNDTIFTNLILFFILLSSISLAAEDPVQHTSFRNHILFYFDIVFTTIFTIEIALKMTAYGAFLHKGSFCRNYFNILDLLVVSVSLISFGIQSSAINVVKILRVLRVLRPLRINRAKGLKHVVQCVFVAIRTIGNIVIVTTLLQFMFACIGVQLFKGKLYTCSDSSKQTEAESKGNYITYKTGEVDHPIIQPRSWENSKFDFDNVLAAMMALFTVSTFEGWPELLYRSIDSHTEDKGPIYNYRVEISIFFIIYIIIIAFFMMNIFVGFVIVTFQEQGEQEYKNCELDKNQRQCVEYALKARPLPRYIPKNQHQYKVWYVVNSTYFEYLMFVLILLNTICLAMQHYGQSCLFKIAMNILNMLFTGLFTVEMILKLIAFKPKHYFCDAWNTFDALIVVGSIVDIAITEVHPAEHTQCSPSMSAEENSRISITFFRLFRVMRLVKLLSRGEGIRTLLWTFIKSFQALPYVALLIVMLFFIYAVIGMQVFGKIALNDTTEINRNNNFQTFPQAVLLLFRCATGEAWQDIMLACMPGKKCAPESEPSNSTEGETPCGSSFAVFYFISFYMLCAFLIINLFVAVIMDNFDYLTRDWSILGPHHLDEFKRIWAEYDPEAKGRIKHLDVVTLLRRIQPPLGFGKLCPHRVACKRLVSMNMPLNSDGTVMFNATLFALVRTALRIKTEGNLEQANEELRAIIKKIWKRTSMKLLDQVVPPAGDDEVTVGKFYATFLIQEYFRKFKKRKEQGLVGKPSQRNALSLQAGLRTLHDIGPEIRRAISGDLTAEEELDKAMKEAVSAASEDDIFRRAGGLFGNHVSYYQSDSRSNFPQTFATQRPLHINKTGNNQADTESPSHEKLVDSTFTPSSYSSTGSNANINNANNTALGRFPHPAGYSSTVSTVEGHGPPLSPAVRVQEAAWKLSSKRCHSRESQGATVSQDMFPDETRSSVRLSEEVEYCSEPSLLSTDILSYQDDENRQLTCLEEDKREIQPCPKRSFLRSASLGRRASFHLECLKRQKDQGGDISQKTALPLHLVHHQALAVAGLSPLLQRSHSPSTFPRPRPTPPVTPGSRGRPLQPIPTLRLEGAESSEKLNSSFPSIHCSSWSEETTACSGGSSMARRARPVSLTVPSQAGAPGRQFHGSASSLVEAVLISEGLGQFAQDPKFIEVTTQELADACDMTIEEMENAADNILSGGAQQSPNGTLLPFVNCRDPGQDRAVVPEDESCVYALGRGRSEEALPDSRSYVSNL

SMILES	AC50 (Motilin receptor) [µM]	AC50 (Melanocortin receptor 3) [µM]	AC50 [1] [µM]	AC50 (D(1A) dopamine receptor [2]) [µM]	AC50 [3] [µM]	AC50 [4] [µM]	AC50 [5] [µM]	AC50 [6] [µM]	AC50 (D(1A) dopamine receptor [7]) [µM]	AC50 (Mu-type opioid receptor) [µM]	AC50 (Progesterone receptor) [µM]
C[C@@H]1C[C@H]2[C@@H]3C[C@H](F)C4=CC(=O)C=C[C@]4(C)[C@@]3(F)[C@@H](O)C[C@]2(C)[C@@]1(OC(=O)c1ccco1)C(=O)SCF [FLUTICASONE FUROATE]	> 10	> 10	> 10	> 30	> 10	> 10	> 30	> 10	> 10	> 30	
Clc1ccc(C(Cn2ccnc2)OCc2csc3c(Cl)cccc23)c(Cl)c1 (stereo not given) [SERTACONAZOLE]				5.39			9.44				0.831
CC(OCCN1CCCCCC1)(c1ccccc1)c1ccc(Cl)cc1 (stereo not given) [SETASTINE]				6.96			0.493				> 30
COc1cc(C)c2c(Oc3cccc(C(F)(F)F)c3)c(OC)cc(NC(C)CCCN)c2n1 (stereo not given) [TAFENOQUINE]				16.4			> 3				4.23
CCCSc1nc(N[C@@H]2C[C@H]2c2ccc(F)c(F)c2)c2nnn([C@@H]3C[C@H](OCCO)[C@@H](O)[C@H]3O)c2n1 [TICAGRELOR]				14.9			8.29				7.6
c1ccc2c(SC3=NCCN3)c[nH]c2c1 [TINAZOLINE]				> 30			> 30				24
